Laboratory results published in patent US20240279294A1, “p53 VARIANT WITH IMPROVED LIQUID-LIQUID PHASE SEPARATION ABILITY AND ACTIVITY AND USE THEREOF” (Zhejiang University, priority 2023, published 2024).

B1: LLPSE-p53 (SEQ ID NO.7): p53 in rat with added sequence (including linker) GGASGHHHHHHHHGGAGGGGRRRRRRKK (protein)
chain: MEDSQSDMSIELPLSQETFSCLWKLLPPDDILPTTATGSPNSMEDLFLPQDVAELLEGPEEALQVSAPAAQEPGTEAPAPVAPASATPWPLSSSVPSQKTYQGNYGFHLGFLQSGTAKSVMCTYSISLNKLFCQLAKTCPVQLWVTSTPPPGTRVRAMAIYKKSQHMTEVVRRCPHHERCSDGDGLAPPQHLIRVEGNPYAEYLDDRQTFRHSVVVPYEPPEVGSDYTTIHYKYMCNSSCMGGMNRRPILTIITLEDSSGNLLGRDSFEVRVCACPGRDRRTEEENFRKKEEHCPELPPGSAKRALPTSTSSSPQQKKKPLDGEYFTLKIRGRERFEMFRELNEALELKDARAAEESGDSRAHSSYPKTKKGQSTSRHKKPMIKKVGPDSDGGASGHHHHHHHHGGAGGGGRRRRRRKK

Legend:
U-2OS cells = assay: cell viability (CCK8), protein delivery combined with TAS-120 or IWR-1, U-2OS; assay type: cell-based, human; conditions: LLPSE-p53 (SEQ ID NO.3) protein 0.5-2 μM 24 h, then inhibitor 5-20 μM 24 h; compared with inhibitor plus buffer
Procedure: The above system was sterilized with a 0.22 μm filter membrane. • 4. The complete medium in the well plate was sucked and discarded, and the above protein delivery system was added, the plate was then placed in an incubator for culture for 24 h. • 5. […] Cell viability was measured by a CCK8 method and with a M5 microplate reader. • 7. Graphpad5 software was used for data processing and one-way ANOVA method was used for statistical analysis.

CDKN1A = CDKN1A luciferase reporter assay in H1299 cells; assay type: cell-based, human; conditions: H1299, plasmid co-transfected with CDKN1A reporter gene plasmid, 24 h; compared with WT-p53
Procedure: (§1) Implementation was made as follows: • 1. Proper number of cells were seeded into a 96-well cell culture plate, plasmids and CDKN1A reporter gene plasmid were co-transformed when cell density reached 60-70%, the cells were then cultured in an incubator for 24 h. • 2. A chemiluminescence test was carried out with a luciferase reporting system test kit produced by Promega and a M5 microplate reader. • 3. Graphpad5 software was used for data processing and analysis.
as §1, with “chemiluminescence assay” for “chemiluminescence test”, “with the” for “with a”, “system” for “system test”
Specific implementation steps can refer to Example 8.

Molecule	killing of U-2OS cells by the inhibitor when combined with LLPSE-p53 protein (U-2OS cells)	transactivation activity on CDKN1A (CDKN1A)
O=C(Nc1cccc2cccnc12)c1ccc(N2C(=O)[C@@H]3[C@H](C2=O)[C@@H]2C=C[C@H]3C2)cc1 [IWR-1]	significantly promotes TAS-120 or IWR-1 to kill U-2OS cells	
B1		significantly increases the transactivation activity of CDKN1A
